Measurements: ChEMBL document CHEMBL1201862, “PubChem BioAssay data set” (2004)
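Values below derive from 48-hour exposures of cells grown in 96-well plates, with endpoints linearly interpolated between the two concentrations bracketing the appropriate inhibition level. GI50 is the concentration that inhibits growth by half.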 Activity calls are given as the source filed them. Rule as the data show it: active = GI50 up to about 1.1 µM and inactive = higher.

Columns and labels:
Assay in all cases: growth of human tumour cells (NCI), 48 h
[1] = test system: CCRF-CEM
[2] = test system: HT-29
[3] = test system: K562
[4] = test system: LOX IMVI
[5] = test system: MOLT-4
[6] = test system: NCI-H226
[7] = test system: NCI-H23
[8] = test system: OVCAR-8
[9] = test system: RXF 393
[10] = test system: SF-268
[11] = test system: SF-295
[12] = test system: SN12C
[13] = test system: SNB-75
[14] = test system: TK-10
[15] = test system: UACC-62
[16] = test system: SR

Measured: GI50

CC(C)N1CC2CC(CN(C(=O)c3ccccc3)C2)C1.[O-][Cl+3]([O-])([O-])O
inactive: [1] > 100 µM | [2] > 100 µM | [3] > 100 µM | [4] > 100 µM | [5] > 100 µM | [6] 72.9 µM | [7] > 100 µM | [8] > 100 µM | [9] > 100 µM | [10] > 100 µM | [11] > 100 µM | [12] > 100 µM | [13] > 100 µM | [14] > 100 µM | [15] > 100 µM

C1CCOC2(CCC3(CC2)OCCCCO3)OC1
inactive: [1] > 100 µM | [3] > 100 µM | [5] > 100 µM | [6] > 100 µM | [8] > 100 µM | [9] > 100 µM | [10] > 100 µM | [12] > 100 µM | [13] > 100 µM | [16] > 100 µM | [14] > 100 µM | [15] > 100 µM

COC(=O)c1ccccc1N1C(=O)Cc2ccccc2C1=O
inactive: [2] > 100 µM | [3] > 100 µM | [5] > 100 µM | [6] > 100 µM | [7] > 100 µM | [8] 75.9 µM | [9] 42.3 µM | [10] 55.1 µM | [11] 45.4 µM | [12] > 100 µM | [13] 21.6 µM | [16] > 100 µM | [14] > 100 µM | [15] 72.6 µM

CC(=O)O[C@]1(C)OC(=O)[C@@H](CC(C)C)N1[N+](=O)[O-]
inactive: [1] > 100 µM | [2] > 100 µM | [3] > 100 µM | [4] > 100 µM | [5] > 100 µM | [6] > 100 µM | [7] > 100 µM | [8] > 100 µM | [9] 60.7 µM | [11] > 100 µM | [12] > 100 µM | [13] > 100 µM | [16] > 100 µM | [14] > 100 µM | [15] > 100 µM

COc1ccc(C2S/C(=C\c3cccc([N+](=O)[O-])c3)C(=O)N2NC(=O)Cc2ccccc2)cc1 (stereo not given)
inactive: [1] > 100 µM | [2] > 100 µM | [3] > 100 µM | [4] > 100 µM | [5] > 100 µM | [6] > 100 µM | [7] > 100 µM | [8] > 100 µM | [9] > 100 µM | [10] > 100 µM | [11] > 100 µM | [12] > 100 µM | [13] > 100 µM | [16] > 100 µM | [14] > 100 µM | [15] > 100 µM

COC(=O)C1=C(C(=O)OC)C2C=CC1C1C(Cl)=C(Cl)C21 (stereo not given)
inactive: [1] > 100 µM | [2] > 100 µM | [3] > 100 µM | [4] > 100 µM | [5] > 100 µM | [7] > 100 µM | [8] > 100 µM | [9] > 100 µM | [10] > 100 µM | [11] > 100 µM | [12] > 100 µM | [13] > 100 µM | [14] > 100 µM | [15] > 100 µM

O=C(CCC(=O)Nc1cccc(C(F)(F)F)c1)CC(=O)c1ccc2ccccc2c1
inactive: [1] > 100 µM | [2] > 100 µM | [3] > 100 µM | [4] > 100 µM | [5] > 100 µM | [6] > 100 µM | [7] > 100 µM | [8] > 100 µM | [10] > 100 µM | [11] > 100 µM | [12] > 100 µM | [14] > 100 µM | [15] > 100 µM

COc1cc(/C=C/C(=O)c2sc(Nc3ccccc3)nc2C)ccc1O
inactive: [1] 88.5 µM | [2] 97.9 µM | [3] 56.4 µM | [4] 48.5 µM | [5] 46 µM | [7] > 100 µM | [8] 96.8 µM | [9] 51.9 µM | [10] 49.2 µM | [11] 38.2 µM | [12] 59.6 µM | [13] 23.5 µM | [14] > 100 µM | [15] 82.8 µM

COc1c(C(=O)O)oc2c(OC)cccc12
inactive: [1] > 100 µM | [2] > 100 µM | [3] > 100 µM | [4] > 100 µM | [5] > 100 µM | [6] > 100 µM | [7] > 100 µM | [8] > 100 µM | [10] > 100 µM | [11] > 100 µM | [12] > 100 µM | [13] 29.9 µM | [16] > 100 µM | [14] > 100 µM | [15] > 100 µM

COc1ccc(C2Cc3cc(OC)c(OC)c(OC)c3C2)cc1 (stereo not given)
inactive: [1] 32.6 µM | [2] 28.1 µM | [3] 20.2 µM | [4] 56.8 µM | [5] 22.4 µM | [6] 34.9 µM | [7] 9.59 µM | [8] 48.5 µM | [10] 47.1 µM | [11] 41.1 µM | [12] 52.2 µM | [13] 24.2 µM | [14] 30.3 µM | [15] 66.1 µM

O=c1nc2sc3ccc4ccccc4c3n2nc1-c1ccccc1
inactive: [1] > 100 µM | [2] 94.8 µM | [3] > 100 µM | [4] 15.1 µM | [5] > 100 µM | [6] 59.2 µM | [7] 27.2 µM | [8] 18.9 µM | [9] 21 µM | [10] 37.3 µM | [11] 16.8 µM | [12] 27.2 µM | [13] 21.1 µM | [16] 71.6 µM | [14] 23.1 µM | [15] 64.4 µM

COc1ccc(C(=O)C(C(=O)C(=O)Nc2nccs2)c2ccc(OC)cc2)cc1 (stereo not given)
inactive: [1] > 100 µM | [2] > 100 µM | [3] > 100 µM | [4] > 100 µM | [5] > 100 µM | [7] > 100 µM | [8] > 100 µM | [9] 80.9 µM | [10] > 100 µM | [12] > 100 µM | [13] 73.6 µM | [14] > 100 µM | [15] > 100 µM

CC1C=CC(C)C2(O)C(=O)NC(O)C12 (stereo not given)
inactive: [1] > 100 µM | [3] > 100 µM | [5] > 100 µM | [6] > 100 µM | [8] > 100 µM | [9] > 100 µM | [10] > 100 µM | [12] > 100 µM | [13] > 100 µM | [16] > 100 µM | [14] > 100 µM | [15] > 100 µM

CC1=C(/C(C)=N/NC(=O)C(N)=O)Sc2ccccc2N1
inactive: [1] > 100 µM | [2] > 100 µM | [3] > 100 µM | [4] > 100 µM | [5] > 100 µM | [7] > 100 µM | [8] > 100 µM | [9] > 100 µM | [10] > 100 µM | [11] > 100 µM | [12] > 100 µM | [13] 65.8 µM | [14] > 100 µM | [15] > 100 µM

Cc1ccccc1NC(=O)C(=O)Cc1nc2ccccc2s1
inactive: [1] > 100 µM | [2] > 100 µM | [3] > 100 µM | [4] > 100 µM | [5] > 100 µM | [6] > 100 µM | [7] > 100 µM | [8] > 100 µM | [9] > 100 µM | [10] > 100 µM | [11] > 100 µM | [12] > 100 µM | [13] > 100 µM | [16] > 100 µM | [14] > 100 µM

CCOc1ccc(/N=C\c2cc(OC)c(OC)c(OC)c2)cc1
inactive: [1] > 100 µM | [2] > 100 µM | [3] 52.5 µM | [4] > 100 µM | [5] > 100 µM | [7] > 100 µM | [8] > 100 µM | [9] 2.08 µM | [10] > 100 µM | [11] > 100 µM | [12] > 100 µM | [13] 32.4 µM | [14] > 100 µM | [15] > 100 µM

O=C(c1ccc(Cl)cc1)c1ccc(OCCCCCCCCCCOc2ccc(C(=O)c3ccc(Cl)cc3)cc2)cc1
inactive: [1] > 100 µM | [2] > 100 µM | [3] > 100 µM | [4] > 100 µM | [5] > 100 µM | [6] > 100 µM | [7] > 100 µM | [8] > 100 µM | [9] > 100 µM | [10] > 100 µM | [11] > 100 µM | [12] > 100 µM | [13] > 100 µM | [14] > 100 µM | [15] > 100 µM

CC1(C)OC(=O)C(=C2CC(c3ccccc3)c3ccccc32)C(=O)O1 (stereo not given)
inactive: [1] > 100 µM | [2] > 100 µM | [3] > 100 µM | [4] > 100 µM | [5] > 100 µM | [6] > 100 µM | [7] > 100 µM | [8] > 100 µM | [9] > 100 µM | [10] > 100 µM | [11] > 100 µM | [12] > 100 µM | [13] > 100 µM | [16] > 100 µM | [14] > 100 µM

CC1=C(C(=O)Nc2cc(F)c(F)cc2F)C(c2ccc3c(c2)OCO3)C(C(=O)Nc2cc(F)c(F)cc2F)=C(C)N1
inactive: [1] 19.5 µM | [2] 27.4 µM | [3] 17.9 µM | [4] 14.4 µM | [5] 14.2 µM | [6] 23.9 µM | [7] 19.8 µM | [8] 31 µM | [9] 11.5 µM | [10] 23.3 µM | [11] 21.9 µM | [12] 18.7 µM | [13] 13.1 µM | [14] 23.9 µM
